According to ChEMBL document CHEMBL3885861, “Open TG-GATES”:

Species: Rattus norvegicus
Experiment: Open TG-GATES - Regimen: Daily Repeat
Type: toxicity, organism-based, Sprague-Dawley
Design: regimen Daily Repeat, gender Male, age 6 weeks
Details: in vivo, po, 0 mg/kg, route gavage, dose level Control; for APTT / Bas / Eos / Fbg / Hb / Ht / Lym / MCH / MCHC / MCV / Mono / Neu / PT / Plat / RBC / Ret / WBC: tissue Blood; for LIVER: tissue Liver; for A/G / ALP / ALT / AST / BUN / CRE / Ca / Cl / DBIL / GLC / IP / K / LDH / Na / PL / RALB / TBIL / TC / TG / TP / gamma-GTP: tissue Plasma

## O=[N+]([O-])c1ccc(O)c([N+](=O)[O-])c1 [2,4-DINITROPHENOL]
72 h, time 3 day
  TERMINAL_BW: 246.4 g
  APTT: 16.7 s
  Bas: 0%
  Eos: 1.2%
  Fbg: 265 mg/dL
  Hb: 12.8 g/dL
  Ht: 38.3%
  Lym: 74.4%
  MCH: 21.4 pg
  MCHC: 33.5%
  MCV: 64 fL
  Mono: 4.8%
  Neu: 19.8%
  PT: 11.6 s
  Plat: 131.4 x10_4/uL
  RBC: 599.4 x10_4/ul
  Ret: 6%
  WBC: 119.4 x10_2/uL
  LIVER: 11.9 g
  A/G: 2.3
  ALP: 1481 IU/L
  ALT: 33.8 IU/L
  AST: 62.6 IU/L
  BUN: 15.6 mg/dL
  CRE: 0.4 mg/dL
  Ca: 11.6 mg/dL
  Cl: 103.2 meq/L
  DBIL: 0.01 mg/dL
  GLC: 183 mg/dL
  IP: 7.4 mg/dL
  K: 4.7 meq/L
  LDH: 91.6 IU/L
  Na: 138.2 meq/L
  PL: 156.2 mg/dL
  RALB: 3.9 g/dL
  TBIL: 0.034 mg/dL
  TC: 84.2 mg/dL
  TG: 137 mg/dL
  TP: 5.6 g/dL
  gamma-GTP: 0.8 IU/L
[…], time 7 day
  TERMINAL_BW: 271.5 g
  APTT: 16 s
  Bas: 0%
  Eos: 1%
  Fbg: 247 mg/dL
  Hb: 13.5 g/dL
  Ht: 39.8%
  Lym: 77.2%
  MCH: 21.5 pg
  MCHC: 33.9%
  MCV: 63.4 fL
  Mono: 5%
  Neu: 16.8%
  PT: 11.6 s
  Plat: 133.8 x10_4/uL
  RBC: 629 x10_4/ul
  Ret: 5%
  WBC: 101.8 x10_2/uL
  LIVER: 13.1 g
  A/G: 2.2
  ALP: 1556.6 IU/L
  ALT: 38.6 IU/L
  AST: 68.8 IU/L
  BUN: 18.2 mg/dL
  CRE: 0.4 mg/dL
  Ca: 11.4 mg/dL
  Cl: 105.8 meq/L
  DBIL: 0.014 mg/dL
  GLC: 182.2 mg/dL
  IP: 7.7 mg/dL
  K: 4.7 meq/L
  LDH: 107 IU/L
  Na: 141.2 meq/L
  PL: 154.8 mg/dL
  RALB: 3.8 g/dL
  TBIL: 0.028 mg/dL
  TC: 80 mg/dL
  TG: 162.4 mg/dL
  TP: 5.5 g/dL
  gamma-GTP: 0.8 IU/L
[…], time 14 day
  TERMINAL_BW: 341.5 g
  APTT: 16.5 s
  Bas: 0%
  Eos: 1%
  Fbg: 243.2 mg/dL
  Hb: 13.8 g/dL
  Ht: 40.7%
  Lym: 73%
  MCH: 20.9 pg
  MCHC: 33.9%
  MCV: 61.7 fL
  Mono: 5%
  Neu: 21%
  PT: 11.6 s
  Plat: 130 x10_4/uL
  RBC: 660.8 x10_4/ul
  Ret: 3.9%
  WBC: 124.2 x10_2/uL
  LIVER: 16.5 g
  A/G: 2
  ALP: 1126.4 IU/L
  ALT: 33.4 IU/L
  AST: 59.6 IU/L
  BUN: 18.4 mg/dL
  CRE: 0.3 mg/dL
  Ca: 11.4 mg/dL
  Cl: 104.2 meq/L
  DBIL: 0.012 mg/dL
  GLC: 186 mg/dL
  IP: 7.4 mg/dL
  K: 4.6 meq/L
  LDH: 101.6 IU/L
  Na: 136.8 meq/L
  PL: 151.4 mg/dL
  RALB: 4 g/dL
  TBIL: 0.024 mg/dL
  TC: 72.8 mg/dL
  TG: 182 mg/dL
  TP: 6 g/dL
  gamma-GTP: 0 IU/L
[…], time 28 day
  TERMINAL_BW: 452.7 g
  APTT: 15.9 s
  Bas: 0%
  Eos: 1%
  Fbg: 278.4 mg/dL
  Hb: 14.8 g/dL
  Ht: 43.5%
  Lym: 78.4%
  MCH: 19.6 pg
  MCHC: 34%
  MCV: 57.7 fL
  Mono: 5.6%
  Neu: 15.4%
  PT: 11.6 s
  Plat: 117.2 x10_4/uL
  RBC: 754.6 x10_4/ul
  Ret: 2.8%
  WBC: 107.4 x10_2/uL
  LIVER: 19.9 g
  A/G: 1.8
  ALP: 930.8 IU/L
  ALT: 30.8 IU/L
  AST: 58.6 IU/L
  BUN: 20.2 mg/dL
  CRE: 0.5 mg/dL
  Ca: 11.2 mg/dL
  Cl: 103.4 meq/L
  DBIL: 0.016 mg/dL
  GLC: 195.4 mg/dL
  IP: 7.2 mg/dL
  K: 4.4 meq/L
  LDH: 108.8 IU/L
  Na: 140.6 meq/L
  PL: 161.6 mg/dL
  RALB: 4 g/dL
  TBIL: 0.036 mg/dL
  TC: 79.8 mg/dL
  TG: 228.8 mg/dL
  TP: 6.2 g/dL
  gamma-GTP: 0.4 IU/L
